Converted amounts (≈) assume the structure as drawn. The source made the active and inactive calls. The rule behind the calls is not given here.
Experiments:
[1] = Cytotoxicity against human A549 cells assessed as reduction in cell viability measured after 48 hrs by CCK8 assay; assay type: toxicity, cell-based
[2] = test system: Staphylococcus aureus; experiment: Disruption of biofilm formation in methicillin-resistant Staphylococcus aureus ATCC 33591 assessed as inhibition of biofilm formation at MIC measured after 24 hrs by crystal violet staining based analysis; assay type: functional
[3] = Cytotoxicity against human HEK293 cells assessed as reduction in cell viability measured after 48 hrs by CCK8 assay; assay type: toxicity, cell-based
[4] = test system: Staphylococcus aureus; experiment: Antibacterial activity against methicillin-resistant Staphylococcus aureus ATCC 33591 assessed as inhibition of bacterial growth incubated for 24 hrs by broth microdilution method; assay type: functional
[5] = test system: Escherichia coli; experiment: Disruption of biofilm formation in Escherichia coli ATCC 25922 assessed as inhibition of biofilm formation at MIC measured after 24 hrs by crystal violet staining based analysis; assay type: functional
[6] = test system: Escherichia coli; experiment: Disruption of biofilm formation in Escherichia coli ATCC 25922 assessed as inhibition of biofilm formation at 4XMIC measured after 24 hrs by crystal violet staining based analysis; assay type: functional
[7] = Aqueous solubility of the compound in physiological saline measured after 12 hrs by UV spectrophotometric analysis; assay type: physicochemical
[8] = test system: Salmonella enterica; experiment: Antibacterial activity against Salmonella enterica ATCC 14028 assessed as inhibition of bacterial growth incubated for 24 hrs by broth microdilution method; assay type: functional
[9] = Cytotoxicity against human HepG2 cells assessed as reduction in cell viability measured after 48 hrs by CCK8 assay; assay type: toxicity, cell-based
[10] = test system: Staphylococcus aureus; experiment: Disruption of biofilm formation in methicillin-resistant Staphylococcus aureus ATCC 33591 assessed as inhibition of biofilm formation at 4XMIC measured after 24 hrs by crystal violet staining based analysis; assay type: functional
[11] = test system: Staphylococcus aureus; experiment: Antibacterial activity against methicillin-resistant Staphylococcus aureus ATCC 33591 infected in Kunming mouse assessed as reduction in bacterial load in lungs at 10 mg/kg, ip for 2 days starting from 1 hr post-infection by hematoxylin-eosin staining based analysis; assay type: functional, organism-based; conditions: time 2.0 day
[12] = test system: Staphylococcus epidermidis; experiment: Antibacterial activity against methicillin-resistant Staphylococcus epidermidis ATCC 51625 assessed as inhibition of bacterial growth incubated for 24 hrs by broth microdilution method; assay type: functional
[13] = test system: Staphylococcus aureus; experiment: Antibacterial activity against methicillin-resistant Staphylococcus aureus ATCC 33591 infected in ip dosed Kunming mouse assessed as protection against bacterial infection administered for 7 days starting from 1 hr post-infection; assay type: functional
[14] = test system: Staphylococcus aureus; experiment: Antibacterial activity against methicillin-resistant Staphylococcus aureus ATCC 33591 infected in Kunming mouse assessed as reduction in bacterial load in kidney at 10 mg/kg, ip for 2 days starting from 1 hr post-infection by hematoxylin-eosin staining based analysis; assay type: functional, organism-based; conditions: time 2.0 day
[15] = test system: Staphylococcus aureus; experiment: Antibacterial activity against methicillin-resistant Staphylococcus aureus ATCC 33591 infected in Kunming mouse assessed as animal survival rate at 5 mg/kg, ip for 7 days starting from 1 hr post-infection; assay type: functional; conditions: time 7.0 day
[16] = test system: Staphylococcus aureus; experiment: Antibacterial activity against methicillin-resistant Staphylococcus aureus ATCC 33591 infected in Kunming mouse assessed as reduction in bacterial load in liver at 10 mg/kg, ip for 2 days starting from 1 hr post-infection by hematoxylin-eosin staining based analysis; assay type: functional, organism-based; conditions: time 2.0 day
[17] = test system: Staphylococcus aureus; experiment: Antibacterial activity against […] assessed as inhibition of bacterial growth incubated for 24 hrs by broth microdilution method; assay type: functional; conditions: ATCC 29213
[18] = test system: Escherichia coli; experiment: Antibacterial activity against Escherichia coli CMCC 44103 assessed as inhibition of bacterial growth incubated for 24 hrs by broth microdilution method; assay type: functional
[19] = test system: Staphylococcus aureus; experiment: Antibacterial activity against methicillin-resistant Staphylococcus aureus ATCC 43300 assessed as inhibition of bacterial growth incubated for 24 hrs by broth microdilution method; assay type: functional
[20] = test system: Escherichia coli; experiment: Antibacterial activity against Escherichia coli ATCC 25922 assessed as inhibition of bacterial growth incubated for 24 hrs by broth microdilution method; assay type: functional
[21] = test system: Acinetobacter baumannii; experiment: Antibacterial activity against Acinetobacter baumannii ATCC 19606 assessed as inhibition of bacterial growth incubated for 24 hrs by broth microdilution method; assay type: functional

C=C[C@]1(C)C[C@@H](OC(=O)CSC(C)(C)CNC(=O)[C@H](N)C(C)C)[C@]2(C)[C@H](C)CC[C@]3(CCC(=O)[C@H]32)[C@@H](C)[C@@H]1O [VALNEMULIN]
CC50 at 48 h [1]: 88 µM | inhibition (INH) [2]: 38.1% | CC50 at 48 h [3]: 65.4 µM | MIC [4]: 128 µg/mL (≈ 227 µM) | inhibition (INH) [5]: 26.52% | inhibition (INH) [6]: 64.02% | solubility at 12 h [7]: 341 µM (≈ 193 µg/mL) | MIC [8]: 64 µg/mL (≈ 113 µM) | CC50 at 48 h [9]: 87.3 µM | inhibition (INH) [10]: 68.59% | Activity [11]: Active | MIC [12]: 64 µg/mL (≈ 113 µM) | ED50 ([13]; ATCC 33591, 168 h, time 7 day): 12.3 mg/kg | Activity ([13]; time 7.0 day): Dose-Dependent Effect | Activity [14]: Active | Activity [15]: Active | Activity [16]: Active | MIC [17]: 4 µg/mL (≈ 7.08 µM) | MIC [18]: 64 µg/mL (≈ 113 µM) | MIC [19]: 8 µg/mL (≈ 14.2 µM) | MIC [20]: 16 µg/mL (≈ 28.3 µM) | MIC [21]: 2 µg/mL (≈ 3.54 µM)

From ChEMBL document CHEMBL5338747, “Discovery of Quaternized Pyridine-Thiazole-Pleuromutilin Derivatives with Broad-Spectrum Antibacterial and Potent Anti-MRSA Activity” (J Med Chem, 2023)
